Source: paper PMC6199744, “Development of Chemical Proteomics for the Folateome and Analysis of the Kinetoplastid Folateome” (ACS Infectious Diseases, 2018)
Like-named read-outs stand apart in the source and are kept apart here.

Experiments:
Type in all cases: binding
[1] = target: T1, HeLa cell extract proteins (Homo sapiens, UniProt Q9BXR0)
T1 construct: endogenous in cells; host or cells: HeLa cell extract
T1 sequence (Q9BXR0 1-403): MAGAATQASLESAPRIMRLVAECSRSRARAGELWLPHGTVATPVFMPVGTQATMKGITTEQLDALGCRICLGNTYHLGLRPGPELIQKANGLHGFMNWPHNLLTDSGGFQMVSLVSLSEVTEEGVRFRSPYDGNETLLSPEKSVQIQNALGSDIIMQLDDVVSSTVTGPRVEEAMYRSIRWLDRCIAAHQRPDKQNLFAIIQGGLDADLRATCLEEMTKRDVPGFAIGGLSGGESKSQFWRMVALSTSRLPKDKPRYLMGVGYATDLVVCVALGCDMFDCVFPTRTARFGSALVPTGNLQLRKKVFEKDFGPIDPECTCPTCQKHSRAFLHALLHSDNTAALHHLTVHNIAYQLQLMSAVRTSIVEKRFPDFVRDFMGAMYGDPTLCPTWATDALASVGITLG

[2] = target: T2, HeLa cell extract proteins (Homo sapiens, UniProt Q8N1F7)
T2 construct: endogenous in cells; host or cells: HeLa cell extract
T2 sequence (Q8N1F7 1-819): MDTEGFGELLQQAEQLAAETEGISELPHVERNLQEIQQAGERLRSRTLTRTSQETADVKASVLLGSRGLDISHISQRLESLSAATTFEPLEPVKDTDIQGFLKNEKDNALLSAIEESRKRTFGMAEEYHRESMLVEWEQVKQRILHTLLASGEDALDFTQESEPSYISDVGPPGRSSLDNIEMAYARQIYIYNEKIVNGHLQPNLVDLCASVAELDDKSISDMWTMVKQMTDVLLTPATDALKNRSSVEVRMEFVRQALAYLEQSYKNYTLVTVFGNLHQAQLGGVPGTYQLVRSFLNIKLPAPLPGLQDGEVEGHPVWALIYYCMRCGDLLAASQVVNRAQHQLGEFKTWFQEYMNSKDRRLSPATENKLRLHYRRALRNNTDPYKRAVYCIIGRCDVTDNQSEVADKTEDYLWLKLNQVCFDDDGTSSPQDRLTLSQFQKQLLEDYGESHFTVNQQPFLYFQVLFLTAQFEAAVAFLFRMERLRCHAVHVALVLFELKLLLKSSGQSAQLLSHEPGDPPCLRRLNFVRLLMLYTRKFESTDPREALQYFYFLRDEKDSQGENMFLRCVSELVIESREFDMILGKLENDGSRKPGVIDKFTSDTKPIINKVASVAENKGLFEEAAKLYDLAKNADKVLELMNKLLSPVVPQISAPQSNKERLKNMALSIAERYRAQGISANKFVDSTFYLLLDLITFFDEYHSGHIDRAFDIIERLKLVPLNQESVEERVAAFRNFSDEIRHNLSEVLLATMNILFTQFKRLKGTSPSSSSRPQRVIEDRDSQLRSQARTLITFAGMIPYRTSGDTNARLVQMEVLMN

[3] = target: T3, HeLa cell extract proteins (Homo sapiens, UniProt Q9HBL8)
T3 construct: endogenous in cells; host or cells: HeLa cell extract

[4] = target: T4, HeLa cell extract proteins (Homo sapiens, UniProt P40616)
T4 construct: endogenous in cells; host or cells: HeLa cell extract
T4 sequence (P40616 1-181): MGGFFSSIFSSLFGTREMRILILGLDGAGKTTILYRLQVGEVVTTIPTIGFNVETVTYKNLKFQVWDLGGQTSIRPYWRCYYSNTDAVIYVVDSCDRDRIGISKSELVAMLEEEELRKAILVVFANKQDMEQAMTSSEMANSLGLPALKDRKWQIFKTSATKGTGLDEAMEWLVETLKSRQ

[5] = target: T5, HeLa cell extract proteins (Homo sapiens, UniProt P31943)
T5 construct: endogenous in cells; host or cells: HeLa cell extract
T5 sequence (P31943 1-449): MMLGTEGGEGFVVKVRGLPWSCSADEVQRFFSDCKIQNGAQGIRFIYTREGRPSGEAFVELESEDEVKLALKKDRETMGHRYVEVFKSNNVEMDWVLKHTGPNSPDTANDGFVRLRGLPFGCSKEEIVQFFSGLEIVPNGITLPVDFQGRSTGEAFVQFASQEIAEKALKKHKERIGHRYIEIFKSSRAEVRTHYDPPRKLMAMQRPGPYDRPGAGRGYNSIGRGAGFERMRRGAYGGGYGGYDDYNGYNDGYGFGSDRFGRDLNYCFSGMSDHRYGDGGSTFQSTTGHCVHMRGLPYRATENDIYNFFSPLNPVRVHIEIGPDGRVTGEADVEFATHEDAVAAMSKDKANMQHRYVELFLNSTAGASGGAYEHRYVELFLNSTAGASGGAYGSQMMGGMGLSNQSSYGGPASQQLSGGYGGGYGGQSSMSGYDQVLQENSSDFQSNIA

[6] = target: T6, HeLa cell extract proteins (Homo sapiens, UniProt P06730)
T6 construct: endogenous in cells; host or cells: HeLa cell extract

[7] = target: T7, HeLa cell extract proteins (Homo sapiens, UniProt Q9UJP4)
T7 construct: endogenous in cells; host or cells: HeLa cell extract
T7 sequence (Q9UJP4 1-597): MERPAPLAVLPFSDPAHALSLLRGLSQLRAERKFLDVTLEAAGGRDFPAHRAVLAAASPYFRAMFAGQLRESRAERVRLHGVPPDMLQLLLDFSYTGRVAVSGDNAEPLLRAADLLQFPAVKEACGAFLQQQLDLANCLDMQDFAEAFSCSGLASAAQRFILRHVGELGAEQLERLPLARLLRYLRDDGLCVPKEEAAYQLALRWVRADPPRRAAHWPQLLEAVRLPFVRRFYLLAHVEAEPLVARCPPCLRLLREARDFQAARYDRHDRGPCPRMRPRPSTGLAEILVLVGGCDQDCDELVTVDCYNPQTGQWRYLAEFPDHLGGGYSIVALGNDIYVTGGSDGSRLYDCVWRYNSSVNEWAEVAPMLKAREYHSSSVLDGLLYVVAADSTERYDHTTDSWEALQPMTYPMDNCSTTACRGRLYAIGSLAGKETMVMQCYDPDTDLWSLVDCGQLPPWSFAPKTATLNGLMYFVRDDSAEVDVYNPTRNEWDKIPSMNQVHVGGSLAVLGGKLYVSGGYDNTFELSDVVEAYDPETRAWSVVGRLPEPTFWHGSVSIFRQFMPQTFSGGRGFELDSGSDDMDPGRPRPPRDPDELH

T3 sequence (Q9HBL8 whole entry): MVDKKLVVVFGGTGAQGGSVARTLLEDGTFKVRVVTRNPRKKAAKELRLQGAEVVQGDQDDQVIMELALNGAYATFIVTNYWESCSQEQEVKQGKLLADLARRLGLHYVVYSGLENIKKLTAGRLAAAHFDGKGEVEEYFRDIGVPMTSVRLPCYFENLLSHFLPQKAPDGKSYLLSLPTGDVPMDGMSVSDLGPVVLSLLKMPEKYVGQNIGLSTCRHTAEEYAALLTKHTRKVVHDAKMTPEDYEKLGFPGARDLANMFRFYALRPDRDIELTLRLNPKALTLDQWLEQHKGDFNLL
T6 sequence (P06730 whole entry): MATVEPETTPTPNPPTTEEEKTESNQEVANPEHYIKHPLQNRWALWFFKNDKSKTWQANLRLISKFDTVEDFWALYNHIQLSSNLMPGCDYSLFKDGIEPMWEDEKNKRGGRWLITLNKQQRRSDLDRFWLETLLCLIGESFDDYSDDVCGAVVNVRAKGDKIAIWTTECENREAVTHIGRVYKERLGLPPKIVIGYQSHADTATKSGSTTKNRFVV

Compound: Nc1nc2c(c(=O)[nH]1)N(C=O)C(CNc1ccc(C(=O)N[C@@H](CCC(=O)O)C(=O)O)cc1)CN2 (stereo partly shown) [LEU, leucovorin]
- fold changes relative to vehicle control ([1]; protein QTRT1, HeLa): 0.96
- fold changes relative to vehicle control ([2]; protein NUP93, HeLa): 0.84
- fold changes relative to vehicle control ([3]; protein NMRAL1, HeLa): 1.01
- fold changes relative to vehicle control ([4]; protein ARL1, HeLa): 0.8
- fold changes relative to vehicle control ([5]; HeLa, captured protein HNRNPH1): 0.96
- fold changes relative to vehicle control ([6]; HeLa, captured protein EIF4E): 1.09
- fold changes relative to vehicle control ([7]; HeLa, protein KLHL21): 1.02

Compound: Nc1nc2[nH]cc(CCc3ccc(C(=O)N[C@@H](CCC(=O)O)C(=O)O)cc3)c2c(=O)[nH]1 [PTX, pemetrexed]
- fold changes relative to vehicle control [1]: 0.84
- fold changes relative to vehicle control [2]: 0.91
- fold changes relative to vehicle control [3]: 0.89
- fold changes relative to vehicle control [4]: 0.77
- fold changes relative to vehicle control [5]: 0.86
- fold changes relative to vehicle control [6]: 0.99
- fold changes relative to vehicle control [7]: 0.95

Compound: CCCCCCOc1ccc(Cc2cnc(N)nc2N)cc1 [compound 1]
- fold changes relative to vehicle control ([1]; protein QTRT1, HeLa): 0.51
- fold changes relative to vehicle control ([2]; captured protein NUP93, HeLa): 0.87
- fold changes relative to vehicle control ([3]; captured protein NMRAL1, HeLa): 0.54
- fold changes relative to vehicle control ([4]; captured protein ARL1, HeLa): 0.95
- fold changes relative to vehicle control ([5]; HeLa, protein HNRNPH1): 0.96
- fold changes relative to vehicle control ([6]; HeLa, protein EIF4E): 0.94
- fold changes relative to vehicle control ([7]; HeLa, protein KLHL21): 1.06

Compound: CCCCCCOc1cccc(Cc2cnc(N)nc2N)c1 [compound 2]
- fold changes relative to vehicle control ([1]; protein QTRT1, HeLa): 1.05
- fold changes relative to vehicle control ([2]; captured protein NUP93, HeLa): 0.96
- fold changes relative to vehicle control ([3]; captured protein NMRAL1, HeLa): 1.05
- fold changes relative to vehicle control ([4]; captured protein ARL1, HeLa): 1.09
- fold changes relative to vehicle control ([5]; HeLa, protein HNRNPH1): 1.02
- fold changes relative to vehicle control ([6]; HeLa, protein EIF4E): 0.97
- fold changes relative to vehicle control ([7]; HeLa, protein KLHL21): 1.01

Compound: Nc1nc2cccc(-c3ccccc3)c2n1Cc1ccc(Cl)c(Cl)c1 [compound 3]
- fold changes relative to vehicle control ([1]; protein QTRT1, HeLa): 1.03
- fold changes relative to vehicle control ([2]; captured protein NUP93, HeLa): 0.96
- fold changes relative to vehicle control ([3]; captured protein NMRAL1, HeLa): 0.95
- fold changes relative to vehicle control ([4]; captured protein ARL1, HeLa): 1.06
- fold changes relative to vehicle control ([5]; HeLa, protein HNRNPH1): 1
- fold changes relative to vehicle control ([6]; HeLa, protein EIF4E): 1
- fold changes relative to vehicle control ([7]; HeLa, protein KLHL21): 1.04

Compound: NCCOCCOCC(=O)Nc1nc2ncc(CNc3ccc(C(=O)NC(CCC(=O)O)C(=O)O)cc3)nc2c(=O)[nH]1 (stereo not shown) [compound 6]
- fold changes relative to vehicle control ([1]; protein QTRT1, HeLa): 0.28
- fold changes relative to vehicle control ([2]; protein NUP93, HeLa): 1.01
- fold changes relative to vehicle control ([3]; protein NMRAL1, HeLa): 0.62
- fold changes relative to vehicle control ([4]; protein ARL1, HeLa): 0.9
- fold changes relative to vehicle control ([5]; HeLa, captured protein HNRNPH1): 0.84
- fold changes relative to vehicle control ([6]; HeLa, captured protein EIF4E): 1.03
- fold changes relative to vehicle control ([7]; HeLa, protein KLHL21): 1

Compound: NCCCNc1ccc(C(=O)NC(CCC(=O)O)C(=O)O)cc1 (stereo not shown) [compound 7]
- fold changes relative to vehicle control ([1]; protein QTRT1, HeLa): 0.98
- fold changes relative to vehicle control ([2]; protein NUP93, HeLa): 0.9
- fold changes relative to vehicle control ([3]; protein NMRAL1, HeLa): 1.03
- fold changes relative to vehicle control ([4]; protein ARL1, HeLa): 1.06
- fold changes relative to vehicle control ([5]; HeLa, captured protein HNRNPH1): 0.92
- fold changes relative to vehicle control ([6]; HeLa, captured protein EIF4E): 1.1
- fold changes relative to vehicle control ([7]; HeLa, protein KLHL21): 0.97
